Measured values reported in ChEMBL document CHEMBL1909046, “DrugMatrix in vitro pharmacology data”.
pIC50, pKi: −log10 of the molar value. *1 amine or outer side, *2 acyl side, *3 side chain or, on linkers, in order; H or OH if unused. Where a SMILES comes first, the peptide text is derived from it. Bridges are numbered along the chain shown (N, C = ends). Roman numbers before positions name the chains, in order. [ ]: non-standard residue; d: D form. Actinocin(1to9) = Cc1c2oc3c(C)ccc(C(=O)[*:2])c3nc-2c(C(=O)[*:1])c(N)c1=O; NMeV = CN[C@H](C(=O)O)C(C)C; Sar = CNCC(=O)O

Legend:
[1] = molecular target: T1, C-C chemokine receptor type 4 (Homo sapiens, UniProt P51679); type: cell membranes, Chem-1, Membrane; conditions: chem-1; also: in other assays of this panel Not Active means under 50% inhibition at 10 µM
T1 sequence (P51679 whole entry): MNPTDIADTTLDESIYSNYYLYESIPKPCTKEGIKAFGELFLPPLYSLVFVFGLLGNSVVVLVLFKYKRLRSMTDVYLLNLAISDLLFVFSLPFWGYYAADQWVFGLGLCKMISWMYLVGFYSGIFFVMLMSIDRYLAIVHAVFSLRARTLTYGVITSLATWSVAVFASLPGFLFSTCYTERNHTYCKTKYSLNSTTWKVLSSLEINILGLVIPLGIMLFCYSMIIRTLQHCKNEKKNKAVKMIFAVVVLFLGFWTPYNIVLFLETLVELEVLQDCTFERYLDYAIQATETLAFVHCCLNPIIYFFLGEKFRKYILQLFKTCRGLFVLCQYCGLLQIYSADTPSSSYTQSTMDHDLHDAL

[2] = molecular target: 5-hydroxytryptamine receptor 4 (Cavia porcellus, UniProt O70528); type: cell membranes, Dunkin-Hartley, Striatum, Membrane; also: in other assays of this panel Not Active means under 50% inhibition at 10 µM
B2 bradykinin receptor = molecular target: T2, B2 bradykinin receptor (Homo sapiens, UniProt P30411); type: cell membranes, Membrane; conditions: chem-1; also: in other assays of this panel Not Active means under 50% inhibition at 10 µM
T2 sequence (P30411 whole entry): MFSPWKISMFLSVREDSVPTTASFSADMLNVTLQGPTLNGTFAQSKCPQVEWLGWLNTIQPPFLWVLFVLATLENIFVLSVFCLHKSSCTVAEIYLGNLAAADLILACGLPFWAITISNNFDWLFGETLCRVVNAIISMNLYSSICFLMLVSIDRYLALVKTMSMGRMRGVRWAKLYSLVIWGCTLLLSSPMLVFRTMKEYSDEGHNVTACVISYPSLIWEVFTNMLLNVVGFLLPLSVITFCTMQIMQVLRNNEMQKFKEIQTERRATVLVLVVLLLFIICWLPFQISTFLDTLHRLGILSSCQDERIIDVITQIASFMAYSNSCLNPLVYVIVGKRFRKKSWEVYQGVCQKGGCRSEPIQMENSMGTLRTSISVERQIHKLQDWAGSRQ

[3] = molecular target: Platelet-activating factor receptor (Homo sapiens, UniProt P25105); type: tissue-based; also: in other assays of this panel Not Active means under 50% inhibition at 10 µM
Cytochrome P450 2C19 = Cytochrome P450 2C19 (Homo sapiens, UniProt P33261); conditions: bti-tn-5b1-4; also: in other assays of this panel Not Active means under 50% inhibition at 10 µM
[4] = DRUGMATRIX: Phorbol Ester radioligand binding (ligand: [3H] PDBu); type: cell membranes, Mus musculus, ICR, Brain, Membrane; conditions: Not Active = under 50% inhibition at 10 µM
[5] = DRUGMATRIX: Glutamate, Kainate radioligand binding (ligand: [3H] Kainic acid); type: cell membranes, Rattus norvegicus, Wistar, Brain, Membrane; conditions: Not Active = under 50% inhibition at 10 µM
Cytochrome P450 3A4 = Cytochrome P450 3A4 (Homo sapiens, UniProt P08684); conditions: bti-tn-5b1-4; also: in other assays of this panel Not Active means under 50% inhibition at 10 µM
Sequence of Cytochrome P450 3A4 (P08684 whole entry): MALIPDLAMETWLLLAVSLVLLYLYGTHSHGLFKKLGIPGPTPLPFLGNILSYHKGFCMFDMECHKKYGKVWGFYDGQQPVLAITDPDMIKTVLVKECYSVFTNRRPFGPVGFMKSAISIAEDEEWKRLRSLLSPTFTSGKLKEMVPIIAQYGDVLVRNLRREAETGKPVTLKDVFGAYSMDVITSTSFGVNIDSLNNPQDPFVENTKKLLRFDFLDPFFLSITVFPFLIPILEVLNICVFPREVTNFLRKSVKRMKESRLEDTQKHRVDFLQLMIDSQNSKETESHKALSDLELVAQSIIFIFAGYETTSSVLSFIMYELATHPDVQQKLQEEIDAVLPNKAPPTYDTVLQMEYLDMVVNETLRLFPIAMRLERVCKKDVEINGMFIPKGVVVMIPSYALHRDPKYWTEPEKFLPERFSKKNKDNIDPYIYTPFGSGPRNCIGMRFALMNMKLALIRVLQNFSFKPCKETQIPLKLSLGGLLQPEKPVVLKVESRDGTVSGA

Sequence of Cytochrome P450 2C19 (P33261 whole entry): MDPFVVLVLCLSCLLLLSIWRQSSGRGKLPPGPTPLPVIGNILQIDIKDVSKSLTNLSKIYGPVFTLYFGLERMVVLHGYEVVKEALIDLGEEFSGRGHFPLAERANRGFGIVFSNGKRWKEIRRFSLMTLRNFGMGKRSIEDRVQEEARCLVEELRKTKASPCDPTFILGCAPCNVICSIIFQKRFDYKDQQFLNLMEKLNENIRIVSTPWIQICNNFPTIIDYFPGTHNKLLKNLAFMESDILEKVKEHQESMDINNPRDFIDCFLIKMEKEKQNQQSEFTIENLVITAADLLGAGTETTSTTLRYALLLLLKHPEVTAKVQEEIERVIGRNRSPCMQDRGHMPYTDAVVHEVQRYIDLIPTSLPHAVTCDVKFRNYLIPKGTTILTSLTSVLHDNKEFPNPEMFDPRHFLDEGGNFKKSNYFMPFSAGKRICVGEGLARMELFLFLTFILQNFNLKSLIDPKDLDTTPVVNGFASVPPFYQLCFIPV
Sequence of 5-hydroxytryptamine receptor 4 (O70528 whole entry): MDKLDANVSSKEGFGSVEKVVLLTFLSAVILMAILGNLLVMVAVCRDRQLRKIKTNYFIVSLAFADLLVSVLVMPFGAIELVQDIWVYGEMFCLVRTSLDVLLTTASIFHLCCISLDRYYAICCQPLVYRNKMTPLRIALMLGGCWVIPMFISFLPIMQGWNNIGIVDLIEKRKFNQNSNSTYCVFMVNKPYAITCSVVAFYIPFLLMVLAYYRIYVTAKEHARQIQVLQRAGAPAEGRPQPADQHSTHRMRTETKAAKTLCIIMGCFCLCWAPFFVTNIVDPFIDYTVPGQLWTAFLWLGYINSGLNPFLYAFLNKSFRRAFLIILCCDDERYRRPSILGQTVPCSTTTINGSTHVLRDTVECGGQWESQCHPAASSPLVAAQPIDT
Sequence of Platelet-activating factor receptor (P25105 whole entry): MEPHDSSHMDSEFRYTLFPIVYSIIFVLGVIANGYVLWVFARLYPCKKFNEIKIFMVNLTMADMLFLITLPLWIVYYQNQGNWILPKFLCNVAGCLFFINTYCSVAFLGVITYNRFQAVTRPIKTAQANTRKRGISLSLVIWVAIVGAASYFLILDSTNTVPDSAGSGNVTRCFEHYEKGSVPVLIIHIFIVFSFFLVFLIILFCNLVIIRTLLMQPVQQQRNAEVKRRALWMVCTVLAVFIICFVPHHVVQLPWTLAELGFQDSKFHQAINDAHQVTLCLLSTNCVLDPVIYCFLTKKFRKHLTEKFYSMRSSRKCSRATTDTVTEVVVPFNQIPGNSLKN

Row | Compound | IC50 [1] | IC50 [2] | IC50 (B2 bradykinin receptor) | IC50 [3] | IC50 (Cytochrome P450 2C19) | Ki (Cytochrome P450 2C19) | IC50 [4] | Ki [4] | IC50 [5] | Ki [5] | IC50 (Cytochrome P450 3A4) | Ki (Cytochrome P450 3A4) | Ki [1] | Ki [2] | Ki (B2 bradykinin receptor) | Ki [3] | pIC50 ([2]; read-out: IC50) | pKi ([2]; read-out: Ki)
1 | Cc1c(C)c2c(c(C)c1O)CC[C@@](C)(CCC[C@H](C)CCC[C@H](C)CCCC(C)C)O2 [ALPHA-TOCOPHEROL] | Not Active | Not Active | Not Active | Not Active | Not Active | Not Active | Not Active | Not Active | Not Active | Not Active | Not Active | Not Active |  |  |  |  |  | 
2 | Cc1c2oc3c(C)ccc(C(=O)N[C@@H]4C(=O)N[C@H](C(C)C)C(=O)N5CCC[C@H]5C(=O)N(C)CC(=O)N(C)[C@@H](C(C)C)C(=O)O[C@@H]4C)c3nc-2c(C(=O)N[C@@H]2C(=O)N[C@H](C(C)C)C(=O)N3CCC[C@H]3C(=O)N(C)CC(=O)N(C)[C@@H](C(C)C)C(=O)O[C@@H]2C)c(N)c1=O [DACTINOMYCIN] (I: T[dV]P[Sar][NMeV] / II: T[dV]P[Sar][NMeV]; ester I:1-I:C, II:1-II:C; linker I:N-II:N via Actinocin(1to9)) | Not Active | Not Active | Not Active | Not Active | Not Active | Not Active | Not Active | Not Active | Not Active | Not Active | Not Active | Not Active |  |  |  |  |  | 
3 | CN(Cc1ccc(C(C)(C)C)cc1)Cc1cccc2ccccc12 [BUTENAFINE] | Not Active | Not Active | Not Active | Not Active | Not Active | Not Active | Not Active | Not Active | Not Active | Not Active | Not Active | Not Active |  |  |  |  |  | 
4 | C[C@H]1O[C@@H](O[C@H]2[C@@H](O)C[C@H](O[C@H]3[C@@H](O)C[C@H](O[C@H]4CC[C@@]5(C)[C@H](CC[C@@H]6[C@@H]5C[C@@H](O)[C@]5(C)[C@@H](C7=CC(=O)OC7)CC[C@]65O)C4)O[C@@H]3C)O[C@@H]2C)C[C@H](O)[C@@H]1O [DIGOXIN] | Not Active | Not Active | Not Active | Not Active | Not Active | Not Active | Not Active | Not Active | Not Active | Not Active | Not Active | Not Active |  |  |  |  |  | 
5 | CCCCc1nc(Cl)c(CO)n1Cc1ccc(-c2ccccc2-c2nnn[nH]2)cc1 [LOSARTAN] | Not Active | Not Active | Not Active | Not Active | Not Active | Not Active | Not Active | Not Active | Not Active | Not Active | Not Active | Not Active |  |  |  |  |  | 
6 | CNCCc1ccccn1 [BETAHISTINE] | Not Active | Not Active | Not Active | Not Active | Not Active | Not Active | Not Active | Not Active | Not Active | Not Active | Not Active | Not Active |  |  |  |  |  | 
7 | O=C(O)CCCc1ccc(N(CCCl)CCCl)cc1 [CHLORAMBUCIL] | Not Active | Not Active | Not Active | Not Active | Not Active | Not Active | Not Active | Not Active | Not Active | Not Active | Not Active | Not Active |  |  |  |  |  | 
8 | NC(=O)N1c2ccccc2CCc2ccccc21 | Not Active | Not Active | Not Active | Not Active | Not Active | Not Active | Not Active | Not Active | Not Active | Not Active | Not Active | Not Active |  |  |  |  |  | 
9 | NCCCCCC(=O)O [AMINOCAPROIC ACID] | Not Active | Not Active | Not Active | Not Active | Not Active | Not Active | Not Active | Not Active | Not Active | Not Active | Not Active | Not Active |  |  |  |  |  | 
10 | C=C(C)C1(O)OC(=O)C=C1OC (centres undefined) [PENICILLIC ACID] | Not Active | Not Active | Not Active | Not Active | Not Active | Not Active | Not Active | Not Active | Not Active | Not Active | Not Active | Not Active |  |  |  |  |  | 
11 | CC1(C)O[C@@H]2C[C@H]3[C@@H]4CCC5=CC(=O)CC[C@]5(C)[C@@]4(F)[C@@H](O)C[C@]3(C)[C@]2(C(=O)CCl)O1 [HALCINONIDE] | Not Active | Not Active | Not Active | Not Active | Not Active | Not Active | Not Active | Not Active | Not Active | Not Active | Not Active | Not Active |  |  |  |  |  | 
12 | LIPOPOLYSACCHARIDE E. COLI O55:B5 | Not Active | Not Active | Not Active | Not Active | Not Active | Not Active | Not Active | Not Active | Not Active | Not Active | Not Active | Not Active | Not Active | Not Active | Not Active | Not Active |  | 
13 | COc1cc2c3cc1Oc1cc(ccc1O)C[C@@H]1c4c(cc(OC)c(O)c4Oc4ccc(cc4)C[C@@H]3N(C)CC2)CC[N+]1(C)C.[Cl-] | Not Active | Not Active | Not Active | Not Active | Not Active | Not Active | Not Active | Not Active | Not Active | Not Active | Not Active | Not Active |  |  |  |  |  | 
14 | Cc1onc(-c2ccccc2Cl)c1C(=O)N[C@@H]1C(=O)N2[C@@H]1SC(C)(C)[C@@H]2C(=O)O [CLOXACILLIN] | Not Active | Not Active | Not Active | Not Active | Not Active | Not Active | Not Active | Not Active | Not Active | Not Active | Not Active | Not Active |  |  |  |  |  | 
15 | CADMIUM ACETATE | Not Active | Not Active | Not Active | Not Active | Not Active | Not Active | Not Active | Not Active | Not Active | Not Active | Not Active | Not Active | Not Active | Not Active | Not Active | Not Active |  | 
16 | CNCCCN1c2ccccc2CCc2ccccc21 [DESIPRAMINE] | Not Active | Not Active | Not Active | Not Active | Not Active | Not Active | Not Active | Not Active | Not Active | Not Active | Not Active | Not Active |  |  |  |  |  | 
17 | C[C@]12CCC(=O)C=C1CC[C@@H]1[C@@H]2CC[C@@]2(C)[C@H]1CC[C@]2(C)O [METHYLTESTOSTERONE] | Not Active | Not Active | Not Active | Not Active | Not Active | Not Active | Not Active | Not Active | Not Active | Not Active | Not Active | Not Active |  |  |  |  |  | 
18 | C[C@](N)(Cc1ccc(O)c(O)c1)C(=O)O [METHYLDOPA] | Not Active | Not Active | Not Active | Not Active | Not Active | Not Active | Not Active | Not Active | Not Active | Not Active | Not Active | Not Active |  |  |  |  |  | 
19 | O=C(CCCN1CC=C(n2c(=O)[nH]c3ccccc32)CC1)c1ccc(F)cc1 [DROPERIDOL] | Not Active |  | Not Active | Not Active | Not Active | Not Active | Not Active | Not Active | Not Active | Not Active | Not Active | Not Active |  |  |  |  | 5.42 | 6.20
20 | CC1CC(OC(=O)C(O)c2ccccc2)CC(C)(C)C1 (centres undefined) [CYCLANDELATE] | Not Active | Not Active | Not Active | Not Active | Not Active | Not Active | Not Active | Not Active | Not Active | Not Active | Not Active | Not Active |  |  |  |  |  | 
